According to ChEMBL document CHEMBL3132769, “Fragment growing to retain or alter the selectivity of anchored kinase hinge-binding fragments” (Medchemcomm, 2014):

Tests used:
[1] = molecular target: T1, Serine/threonine-protein kinase BRSK1 (Homo sapiens) (UniProt Q8TDC3); experiment: Inhibition of human full length BRSK1 expressed in baculovirus assessed as substrate phosphorylation using fluorescence-labelled peptides as substrate at 420 uM after 90 mins by microfluidic peptide phosphorylation assay
T1 sequence (whole entry): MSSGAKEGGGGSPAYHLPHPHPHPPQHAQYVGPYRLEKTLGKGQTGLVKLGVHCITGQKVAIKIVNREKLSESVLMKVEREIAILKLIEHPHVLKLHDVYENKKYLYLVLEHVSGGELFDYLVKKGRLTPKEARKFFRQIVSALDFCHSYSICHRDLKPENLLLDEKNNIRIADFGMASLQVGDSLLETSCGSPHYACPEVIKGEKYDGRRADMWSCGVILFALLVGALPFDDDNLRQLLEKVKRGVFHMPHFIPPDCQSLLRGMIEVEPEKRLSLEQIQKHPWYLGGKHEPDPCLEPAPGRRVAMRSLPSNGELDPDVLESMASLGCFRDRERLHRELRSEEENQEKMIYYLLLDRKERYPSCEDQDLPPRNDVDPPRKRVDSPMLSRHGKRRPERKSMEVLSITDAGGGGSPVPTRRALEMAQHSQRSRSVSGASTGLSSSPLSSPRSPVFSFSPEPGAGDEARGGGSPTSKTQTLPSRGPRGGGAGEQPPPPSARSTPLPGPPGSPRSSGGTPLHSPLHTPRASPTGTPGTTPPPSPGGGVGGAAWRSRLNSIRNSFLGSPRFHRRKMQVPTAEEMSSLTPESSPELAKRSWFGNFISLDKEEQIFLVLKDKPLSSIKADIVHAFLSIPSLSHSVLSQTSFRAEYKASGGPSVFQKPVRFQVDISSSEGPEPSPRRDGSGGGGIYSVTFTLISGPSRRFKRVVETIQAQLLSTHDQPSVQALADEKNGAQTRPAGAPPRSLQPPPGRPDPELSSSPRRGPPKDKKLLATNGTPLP

[2] = molecular target: Epidermal growth factor receptor (Homo sapiens) (UniProt P00533); experiment: Inhibition of human EGFR catalytic domain expressed in baculovirus assessed as substrate phosphorylation using fluorescence-labelled peptides as substrate at 8 uM after 90 mins by microfluidic peptide phosphorylation assay
[3] = molecular target: T2, Serine/threonine-protein kinase DCLK2 (Homo sapiens) (UniProt Q8N568); experiment: Inhibition of human full length DCAMKL2 expressed in baculovirus assessed as substrate phosphorylation using fluorescence-labelled peptides as substrate at 8 uM after 90 mins by microfluidic peptide phosphorylation assay
T2 sequence (whole entry): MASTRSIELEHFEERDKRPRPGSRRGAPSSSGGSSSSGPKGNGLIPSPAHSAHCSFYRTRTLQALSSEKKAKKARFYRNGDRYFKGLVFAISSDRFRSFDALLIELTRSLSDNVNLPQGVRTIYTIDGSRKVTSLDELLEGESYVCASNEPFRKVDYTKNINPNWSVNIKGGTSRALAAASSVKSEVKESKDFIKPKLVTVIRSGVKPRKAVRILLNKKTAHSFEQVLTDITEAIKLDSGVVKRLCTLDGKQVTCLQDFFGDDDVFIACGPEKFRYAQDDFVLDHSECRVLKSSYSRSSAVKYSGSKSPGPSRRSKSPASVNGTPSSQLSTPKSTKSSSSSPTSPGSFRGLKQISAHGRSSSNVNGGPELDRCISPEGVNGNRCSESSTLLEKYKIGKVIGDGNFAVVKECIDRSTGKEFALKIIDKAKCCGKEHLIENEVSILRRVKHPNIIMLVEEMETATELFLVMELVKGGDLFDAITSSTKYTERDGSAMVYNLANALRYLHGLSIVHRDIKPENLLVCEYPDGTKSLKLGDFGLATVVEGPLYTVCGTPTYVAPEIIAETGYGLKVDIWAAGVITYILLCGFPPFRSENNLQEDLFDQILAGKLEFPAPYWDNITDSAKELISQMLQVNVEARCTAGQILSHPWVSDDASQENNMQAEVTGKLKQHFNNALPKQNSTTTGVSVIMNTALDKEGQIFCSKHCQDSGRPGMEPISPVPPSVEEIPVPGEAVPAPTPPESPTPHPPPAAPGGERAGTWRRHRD

[4] = molecular target: Cyclin-dependent kinase 2 (Homo sapiens) (UniProt P24941); experiment: Inhibition of human full length CDK2 expressed in baculovirus assessed as substrate phosphorylation using fluorescence-labelled peptides as substrate at 70 uM after 90 mins by microfluidic peptide phosphorylation assay
[5] = molecular target: T3, Mitogen-activated protein kinase 13 (Homo sapiens) (UniProt O15264); experiment: Inhibition of human full length p38 delta expressed in Escherichia coli cell assessed as substrate phosphorylation using fluorescence-labelled peptides as substrate at 70 uM after 90 mins by microfluidic peptide phosphorylation assay
T3 sequence (whole entry): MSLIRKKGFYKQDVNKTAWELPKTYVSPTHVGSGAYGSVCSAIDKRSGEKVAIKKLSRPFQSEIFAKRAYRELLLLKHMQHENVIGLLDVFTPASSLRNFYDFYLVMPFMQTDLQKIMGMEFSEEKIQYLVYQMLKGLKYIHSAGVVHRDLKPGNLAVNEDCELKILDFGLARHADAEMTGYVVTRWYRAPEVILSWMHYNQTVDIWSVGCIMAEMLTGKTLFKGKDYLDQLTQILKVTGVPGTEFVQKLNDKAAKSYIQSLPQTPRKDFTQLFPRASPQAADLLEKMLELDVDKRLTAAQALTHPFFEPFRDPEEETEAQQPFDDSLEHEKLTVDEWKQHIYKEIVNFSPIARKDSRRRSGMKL

[6] = molecular target: T4, cGMP-dependent protein kinase 1 (Homo sapiens) (UniProt Q13976); experiment: Inhibition of human full length PKG-1beta expressed in baculovirus assessed as substrate phosphorylation using fluorescence-labelled peptides as substrate at 1000 uM after 90 mins by microfluidic peptide phosphorylation assay
T4 sequence (whole entry): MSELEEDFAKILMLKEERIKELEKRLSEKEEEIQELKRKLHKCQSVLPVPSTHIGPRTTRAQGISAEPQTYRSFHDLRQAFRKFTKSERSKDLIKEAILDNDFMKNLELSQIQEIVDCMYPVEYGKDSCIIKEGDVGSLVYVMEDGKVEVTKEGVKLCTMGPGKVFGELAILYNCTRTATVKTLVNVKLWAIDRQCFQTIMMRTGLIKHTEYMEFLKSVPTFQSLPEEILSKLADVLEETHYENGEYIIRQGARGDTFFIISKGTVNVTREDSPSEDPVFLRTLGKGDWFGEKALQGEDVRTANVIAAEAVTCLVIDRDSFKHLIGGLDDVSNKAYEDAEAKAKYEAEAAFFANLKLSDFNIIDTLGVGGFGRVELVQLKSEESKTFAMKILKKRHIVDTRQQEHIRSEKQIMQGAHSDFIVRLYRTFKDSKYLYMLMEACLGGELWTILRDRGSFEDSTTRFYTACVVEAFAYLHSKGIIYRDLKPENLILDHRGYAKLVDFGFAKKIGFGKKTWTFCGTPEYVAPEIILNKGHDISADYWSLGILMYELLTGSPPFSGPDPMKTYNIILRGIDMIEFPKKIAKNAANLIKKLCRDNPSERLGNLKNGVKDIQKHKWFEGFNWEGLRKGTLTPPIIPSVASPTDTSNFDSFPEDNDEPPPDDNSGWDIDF

Chain of Epidermal growth factor receptor (Homo sapiens) (P00533 whole entry, the tested form may be a part): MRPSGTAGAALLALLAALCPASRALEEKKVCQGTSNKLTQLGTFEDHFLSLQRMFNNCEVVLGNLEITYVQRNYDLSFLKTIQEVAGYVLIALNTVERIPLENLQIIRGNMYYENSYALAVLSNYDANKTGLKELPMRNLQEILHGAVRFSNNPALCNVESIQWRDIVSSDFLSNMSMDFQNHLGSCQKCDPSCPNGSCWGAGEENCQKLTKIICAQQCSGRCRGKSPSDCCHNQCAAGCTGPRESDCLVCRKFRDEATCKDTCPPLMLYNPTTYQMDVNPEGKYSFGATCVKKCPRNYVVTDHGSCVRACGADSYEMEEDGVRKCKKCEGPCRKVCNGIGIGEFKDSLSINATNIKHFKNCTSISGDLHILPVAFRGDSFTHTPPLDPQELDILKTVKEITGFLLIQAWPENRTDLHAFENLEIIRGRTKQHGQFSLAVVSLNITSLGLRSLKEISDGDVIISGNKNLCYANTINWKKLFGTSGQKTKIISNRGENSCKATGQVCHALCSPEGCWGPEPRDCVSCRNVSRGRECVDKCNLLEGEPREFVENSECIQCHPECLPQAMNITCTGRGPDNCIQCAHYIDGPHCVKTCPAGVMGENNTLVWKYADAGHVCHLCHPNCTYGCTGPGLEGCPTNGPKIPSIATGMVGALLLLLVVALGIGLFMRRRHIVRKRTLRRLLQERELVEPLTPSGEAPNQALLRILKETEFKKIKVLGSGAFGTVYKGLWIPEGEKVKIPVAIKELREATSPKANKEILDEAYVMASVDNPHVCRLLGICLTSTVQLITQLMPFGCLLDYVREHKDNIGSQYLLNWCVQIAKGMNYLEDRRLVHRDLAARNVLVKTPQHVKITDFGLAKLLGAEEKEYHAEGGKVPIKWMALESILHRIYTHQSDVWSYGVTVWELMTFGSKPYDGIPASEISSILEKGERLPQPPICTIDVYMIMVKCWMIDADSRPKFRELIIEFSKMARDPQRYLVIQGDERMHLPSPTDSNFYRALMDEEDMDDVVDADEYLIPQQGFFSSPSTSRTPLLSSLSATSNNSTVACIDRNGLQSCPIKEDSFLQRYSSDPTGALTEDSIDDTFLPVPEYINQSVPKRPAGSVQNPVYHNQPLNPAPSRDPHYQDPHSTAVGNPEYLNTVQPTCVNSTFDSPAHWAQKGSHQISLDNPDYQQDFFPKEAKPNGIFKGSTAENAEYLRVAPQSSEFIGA

## c1nc(N2CCOCC2)c2nc[nH]c2n1
[1]
  inhibition: 51.5%

## NCC1CCN(c2ncnc3[nH]ccc23)CC1
[2]
  inhibition: 33%
[3]
  inhibition: 21%

## CNCc1ccc(-c2ncnc3[nH]cnc23)cc1
[4]
  inhibition: 34%
[5]
  inhibition: 5%

## c1cnc2[nH]ccc2c1
[6]
  inhibition: 87%
